Assay results from patent US20230348540A1, “Viral multimeric peptide constructs for targeting PDZ domains” (University of Copenhagen, priority 2020, published 2023).
Peptide text beside a SMILES is read from it. * marks the point of attachment. Biotin = O=C1N[C@H]2[C@H](CS[C@H]2CCCCC(=O)*)N1; Ahx = NCCCCCC(=O)O

Key:
PICK1 [1] = biological target: T1, PICK1 (Rattus norvegicus, UniProt Q9EP80); assay: Fluorescence Polarization for PICK1 (Example 8); assay type: binding; conditions: in words, FIG. 17
T1 construct: Full length rat PICK1 (pET41) was prepared as described earlier; inferred from pET41 and glutathione-Sepharose capture) (N, cleaved yes); made in house; host or cells: E. coli BL21-DE3-pLysS
Experimental: The plates were incubated 30-40 min on ice and the fluorescence polarization was measured on an Omega POLARstar plate (BMG LABTECH) reader using excitation filter at 485 nm and long pass emission filter at 520 nm. The data was plotted using GraphPad Prism 8.3, and fitted to the ‘One site—Fit’ Ki competition curve, to extract apparent KI values.

[2] = SEC-MALS of peptides (oligomeric state); assay type: physicochemical; conditions: 50 μL of 1000 μM peptide, Example 7
Experimental: Size exclusion chromatography Multi angle light scattering (SEC-MALS): was done using an Agilent HPLC equipped with a Wyatt MALS setup, where 50 μL of 1000 μM, of indicated peptide, was loaded onto a Superdex200 Increase 10/300 column. Resulting data was analyzed and molecular weight was calculated using the ASTRA® software package, data was plotted using GraphPad Prism 8.3.

PSD-95 PDZ12 [3] = biological target: T2, PSD-95 PDZ12 (Homo sapiens, UniProt P78352); assay: Fluorescence polarization for PSD-95 PDZ12 (Example 8); assay type: binding; conditions: in words, FIG. 18
T2 construct: Fluorescence polarization for PSD-95 (FL and PDZ12)
Experimental: Fluorescence polarization for PSD-95 (FL and PDZ12): Fluorescence polarization was carried out in competition mode at a fixed concentration of protein (150 nM) and tracer (5[…], 5 nM), against an increasing concentration of unlabeled peptide.

FL-PSD-95 = biological target: T3, FL-PSD-95 (Homo sapiens, UniProt P78352); assay: Size exclusion chromatography of PSD-95 in absence or presence of peptide; conditions: 10 μM FL-PSD-95, 50 μM peptide, Example 8
T3 construct: TRX-6xHis-hPSD95 1-724 encoding plasmid; TRX (thioredoxin) (N); 6xHis (N); made in house; host or cells: E. coli BL21-DE3-pLysS
Experimental: (§1) Size exclusion chromatography: was done using a Äkta purifier with a Superdex200 Increase 10/300 column, where, 500 μL of 30 μM PICK1 or 200 μL 10 uM of FL-PSD-95 in absence or presence of peptides was loaded. Absorbance profile was measured at 280 nm and plotted against elution volume using Graph Pad Prism 8.3.

PSD-95 PDZ12 [4] = biological target: T2, PSD-95 PDZ12; assay: Confocal microscopy on liquid-liquid phase separation droplets, PSD-95 PDZ1-2 (Example 8); conditions: 100 μM PSD-95 PDZ1-2
Experimental: Images were acquired using averaging of 4 line scans and 12-bit. The liquid-liquid phase separation droplets were prepared in the desired concentration in Phosphate buffered Saline supplemented with 1 mM TCEP (PBS-TCEP) and added to an untreated lab tec (155411PK) and imaged after being allowed to settle for 5 min at 25° C. For samples containing fluorescent protein or peptide the content of fluorescent protein or peptide was kept at 1% of indicated total protein or peptide concentration.

PICK1 [5] = biological target: T1, PICK1; assay: Size exclusion chromatography of PICK1 in absence or presence of peptide; conditions: 30 μM PICK1, 50 μM peptide, Example 8
Experimental: Absorbance profiles were measured at 280 nm and plotted against elution volume using Graph Pad Prism 8.3.
as §1

PICK1 [6] = biological target: T1, PICK1; assay: Fluorescence polarization competition of HWLKV substitution peptide libraries (Example 6); assay type: binding; conditions: relative to HWLKV, tracer 5FAM-HWLKV 20 nM, FIG. 7, in words
Experimental: Fluorescence polarization: Fluorescence polarization was carried out in competition mode at a fixed concentration of protein and tracer (5[…], 20 nM), against an increasing concentration of indicated unlabeled peptide. The plate was incubated 20 min on ice in a black half-area Corning Black non-binding surface 96-well plate and the fluorescence polarization was measured directly on a Omega POLARstar plate reader using excitation filter at 488-nm and long pass emission filter at 535-nm.

PSD-95 = biological target: T4, PSD-95 (Homo sapiens, UniProt P78352); assay: SDS-PAGE sedimentation assay; conditions: 3 μM PSD-95, 12 μM or 36 μM peptide
T4 construct: TRX-6xHis-hPSD95 1-724 encoding plasmid; TRX (thioredoxin) (N); 6xHis (N); made in house; host or cells: E. coli BL21-DE3-pLysS
T4 sequence (P78352 whole entry): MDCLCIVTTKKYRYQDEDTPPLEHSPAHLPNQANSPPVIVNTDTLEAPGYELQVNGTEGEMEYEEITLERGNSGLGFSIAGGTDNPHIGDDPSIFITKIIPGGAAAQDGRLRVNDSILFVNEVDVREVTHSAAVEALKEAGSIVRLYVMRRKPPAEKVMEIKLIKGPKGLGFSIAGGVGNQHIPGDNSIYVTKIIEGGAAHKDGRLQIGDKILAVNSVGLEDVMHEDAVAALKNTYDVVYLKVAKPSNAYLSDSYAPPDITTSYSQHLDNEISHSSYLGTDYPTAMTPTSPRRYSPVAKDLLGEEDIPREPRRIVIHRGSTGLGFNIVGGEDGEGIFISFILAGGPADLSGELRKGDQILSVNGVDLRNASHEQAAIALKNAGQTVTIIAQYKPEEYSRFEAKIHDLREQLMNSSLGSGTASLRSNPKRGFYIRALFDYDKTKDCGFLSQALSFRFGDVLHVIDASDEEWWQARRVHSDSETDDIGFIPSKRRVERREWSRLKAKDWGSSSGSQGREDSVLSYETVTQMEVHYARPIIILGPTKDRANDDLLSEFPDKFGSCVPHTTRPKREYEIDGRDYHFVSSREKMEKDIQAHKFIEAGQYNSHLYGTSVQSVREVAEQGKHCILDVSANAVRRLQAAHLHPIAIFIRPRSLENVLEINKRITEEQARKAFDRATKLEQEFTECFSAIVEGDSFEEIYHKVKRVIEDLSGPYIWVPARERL
Experimental: SDS-PAGE sedimentation assay: Proteins were mixed in the desired concentration in PBS-TCEP and equilibrated for 10 min before centrifugation at 20 000 g for 15 min at 25° C. using a temperature controlled table top centrifuge. Following centrifugation the supernatant was collected and the pellet was re-suspended in an equal amount of PBS-TCEP, usually 50 μL. To ensure proper resuspension of LLPS, the samples were vortexed before addition of SDS buffer followed by boiling at 95° C. for 5 min. Supernatant and pellet fractions were run on any kD™ Mini-PROTEAN® TGX™ Precast Protein Gels (10 or 15 wells, BioRad 4569036 or 4569033). Gels were imaged using a Li-COR Odyssey gel scanner and band intensities were analyzed using ImageJ.

T2 sequence (P78352 61-249 limits assumed): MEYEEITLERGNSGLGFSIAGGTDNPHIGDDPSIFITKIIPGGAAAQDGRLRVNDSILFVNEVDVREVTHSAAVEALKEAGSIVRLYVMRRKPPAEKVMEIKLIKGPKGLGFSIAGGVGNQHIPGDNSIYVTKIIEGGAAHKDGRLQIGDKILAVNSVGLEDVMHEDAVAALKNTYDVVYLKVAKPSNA
T1 sequence (Q9EP80 whole entry): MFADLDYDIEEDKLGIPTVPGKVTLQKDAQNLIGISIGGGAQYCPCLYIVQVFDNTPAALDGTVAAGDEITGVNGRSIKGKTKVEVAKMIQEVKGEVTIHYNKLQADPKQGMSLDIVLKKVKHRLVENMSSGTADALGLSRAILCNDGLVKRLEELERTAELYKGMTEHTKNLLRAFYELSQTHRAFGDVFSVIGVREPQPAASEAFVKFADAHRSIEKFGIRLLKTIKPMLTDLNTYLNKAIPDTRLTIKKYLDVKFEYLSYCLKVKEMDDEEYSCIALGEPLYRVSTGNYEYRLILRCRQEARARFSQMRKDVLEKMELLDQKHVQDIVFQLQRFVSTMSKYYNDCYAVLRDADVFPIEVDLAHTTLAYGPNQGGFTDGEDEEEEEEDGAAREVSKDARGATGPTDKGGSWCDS
T3 sequence (P78352 whole entry): as the sequence (P78352 whole entry) above

CC[C@H](C)[C@H](NC(=O)[C@H](CCC(=O)O)NC(=O)CNC(=O)CCCCCNC(=O)CCCC[C@@H]1SC[C@@H]2NC(=O)N[C@@H]21)C(=O)N[C@@H](C)C(=O)N[C@@H](CCCCN)C(=O)N[C@@H](CO)C(=O)N[C@@H](CC(C)C)C(=O)N[C@@H](CCCCN)C(=O)N[C@@H](CCC(=O)O)C(=O)N[C@H](C(=O)N[C@@H](C)C(=O)N[C@@H](CCCCN)C(=O)N[C@@H](CO)C(=O)N[C@@H](CC(C)C)C(=O)N[C@@H](CCCCN)C(=O)N[C@@H](CCC(=O)O)C(=O)N[C@H](C(=O)N[C@@H](C)C(=O)N[C@@H](Cc1c[nH]c2ccccc12)C(=O)N[C@@H](CO)C(=O)N[C@@H](CC(C)C)C(=O)N[C@@H](CCCCN)C(=O)N[C@@H](CCC(=O)O)C(=O)N[C@H](C(=O)N[C@@H](C)C(=O)N[C@@H](CCCCN)C(=O)N[C@@H](CO)C(=O)N[C@@H](CC(C)C)C(=O)N[C@@H](CCCCN)C(=O)NCC(=O)NCC(=O)NCC(=O)NCC(=O)N[C@@H](CO)C(=O)N[C@@H](Cc1c[nH]cn1)C(=O)N[C@@H](Cc1c[nH]c2ccccc12)C(=O)N[C@@H](CC(C)C)C(=O)N[C@@H](CCCCN)C(=O)N[C@H](C(=O)O)C(C)C)[C@@H](C)CC)[C@@H](C)CC)[C@@H](C)CC [CC-Hex2-GS4-HWLKV] ({Biotin-Ahx}-GEIAKSLKEIAKSLKEIAWSLKEIAKSLKGGGGSHWLKV-OH; C-terminus assumed)
binding affinity to PICK1 as compared to the dimeric GCN4p1-GS4-HWLKV (PICK1 [1]): superior binding affinity
oligomeric configuration (SEC-MALS) [2]: hexameric configuration

CC[C@H](C)[C@H](NC(=O)[C@H](CCC(=O)O)NC(=O)CNC(=O)CCCCCNC(=O)CCCC[C@@H]1SC[C@@H]2NC(=O)N[C@@H]21)C(=O)N[C@@H](C)C(=O)N[C@@H](CCCCN)C(=O)N[C@@H](CO)C(=O)N[C@@H](CC(C)C)C(=O)N[C@@H](CCCCN)C(=O)N[C@@H](CCC(=O)O)C(=O)N[C@H](C(=O)N[C@@H](C)C(=O)N[C@@H](CCCCN)C(=O)N[C@@H](CO)C(=O)N[C@@H](CC(C)C)C(=O)N[C@@H](CCCCN)C(=O)N[C@@H](CCC(=O)O)C(=O)N[C@H](C(=O)N[C@@H](C)C(=O)N[C@@H](Cc1c[nH]c2ccccc12)C(=O)N[C@@H](CO)C(=O)N[C@@H](CC(C)C)C(=O)N[C@@H](CCCCN)C(=O)N[C@@H](CCC(=O)O)C(=O)N[C@H](C(=O)N[C@@H](C)C(=O)N[C@@H](CCCCN)C(=O)N[C@@H](CO)C(=O)N[C@@H](CC(C)C)C(=O)N[C@@H](CCCCN)C(=O)NCC(=O)NCC(=O)NCC(=O)NCC(=O)N[C@@H](CO)C(=O)N[C@H](C(=O)N[C@@H](CCC(=O)O)C(=O)N[C@H](C(=O)N[C@@H](CC(=O)O)C(=O)N[C@H](C(=O)O)C(C)C)[C@@H](C)O)[C@@H](C)CC)[C@@H](C)CC)[C@@H](C)CC)[C@@H](C)CC [CC-Hex2-GS4-IETDV] ({Biotin-Ahx}-GEIAKSLKEIAKSLKEIAWSLKEIAKSLKGGGGSIETDV-OH; C-terminus assumed)
binding affinity towards PSD95 PDZ1-2 (PSD-95 PDZ12 [3]): high binding affinity
formation of higher order oligomers of PSD-95 (SEC) (FL-PSD-95): ability to form higher order oligomers of PSD-95

CC[C@H](C)[C@H](NC(=O)[C@H](CCC(=O)O)NC(=O)CNC(=O)CCCCCNC(=O)CCCC[C@@H]1SC[C@@H]2NC(=O)N[C@@H]21)C(=O)N[C@@H](C)C(=O)N[C@@H](CCCCN)C(=O)N[C@@H](CO)C(=O)N[C@@H](CC(C)C)C(=O)N[C@@H](CCCCN)C(=O)N[C@@H](CCC(=O)O)C(=O)N[C@H](C(=O)N[C@@H](C)C(=O)N[C@@H](CCCCN)C(=O)N[C@@H](CO)C(=O)N[C@@H](CC(C)C)C(=O)N[C@@H](CCCCN)C(=O)N[C@@H](CCC(=O)O)C(=O)N[C@H](C(=O)N[C@@H](C)C(=O)N[C@@H](Cc1c[nH]c2ccccc12)C(=O)N[C@@H](CO)C(=O)N[C@@H](CC(C)C)C(=O)N[C@@H](CCCCN)C(=O)N[C@@H](CCC(=O)O)C(=O)N[C@H](C(=O)N[C@@H](C)C(=O)N[C@@H](CCCCN)C(=O)N[C@@H](CO)C(=O)N[C@@H](CC(C)C)C(=O)N[C@@H](CCCCN)C(=O)NCC(=O)NCC(=O)NCC(=O)NCC(=O)N[C@@H](CO)C(=O)N[C@@H](CCCNC(=N)N)C(=O)N[C@@H](CCCNC(=N)N)C(=O)N[C@H](C(=O)N[C@H](C(=O)N1CCC[C@H]1C(=O)N[C@H](C(=O)O)C(C)C)[C@@H](C)O)[C@@H](C)O)[C@@H](C)CC)[C@@H](C)CC)[C@@H](C)CC [CC-Hex2-GS4-RRTTPV] ({Biotin-Ahx}-GEIAKSLKEIAKSLKEIAWSLKEIAKSLKGGGGSRRTTPV-OH; C-terminus assumed)
threshold for LLPS formation of PSD-95 PDZ1-2 versus dimeric GCN4p1-GS4-RRTTPV (PSD-95 PDZ12 [4]): lowered thresholds for LLPS formation
binding affinity towards PSD95 PDZ1-2 (PSD-95 PDZ12 [3]): high binding affinity
formation of higher order oligomers of PSD-95 (SEC) (FL-PSD-95): Formation of higher order oligomers of PSD-95 was also observed

CC[C@H](C)[C@H](NC(=O)[C@H](C)NC(=O)[C@H](C)NC(=O)[C@H](CC(C)C)NC(=O)[C@H](CCC(=O)O)NC(=O)[C@H](Cc1c[nH]c2ccccc12)NC(=O)[C@H](CCCCN)NC(=O)[C@@H](NC(=O)[C@H](C)NC(=O)[C@H](C)NC(=O)[C@H](CC(C)C)NC(=O)[C@H](CCC(=O)O)NC(=O)[C@H](CCCCN)NC(=O)[C@H](CCCCN)NC(=O)[C@@H](NC(=O)[C@H](C)NC(=O)[C@H](C)NC(=O)[C@H](CC(C)C)NC(=O)[C@H](CCC(=O)O)NC(=O)[C@H](CCC(N)=O)NC(=O)[C@H](CCCCN)NC(=O)[C@@H](NC(=O)[C@H](C)NC(=O)[C@H](C)NC(=O)[C@H](CC(C)C)NC(=O)[C@H](CCC(=O)O)NC(=O)CNC(=O)CCCCCNC(=O)CCCC[C@@H]1SC[C@@H]2NC(=O)N[C@@H]21)[C@@H](C)CC)[C@@H](C)CC)[C@@H](C)CC)C(=O)N[C@@H](CCCCN)C(=O)N[C@@H](CCC(N)=O)C(=O)NCC(=O)NCC(=O)NCC(=O)NCC(=O)N[C@@H](CO)C(=O)N[C@@H](Cc1c[nH]cn1)C(=O)N[C@@H](Cc1c[nH]c2ccccc12)C(=O)N[C@@H](CC(C)C)C(=O)N[C@@H](CCCCN)C(=O)N[C@H](C(=O)O)C(C)C [CC-Tet-GS4-HWLKV] ({Biotin-Ahx}-GELAAIKQELAAIKKELAAIKWELAAIKQGGGGSHWLKV-OH; C-terminus assumed)
oligomeric configuration (SEC-MALS) [2]: trimeric configuration
formation of higher order oligomers of PICK1 (SEC) (PICK1 [5]): ability to form higher order oligomers of PICK1

EIRV (DAT C5 VARIANT)
Fold affinity change of combinatorial peptide library (PICK1 [6]): optimal 4-mer sequences

GEIAKSLKEIAKSLKEIAWSLKEIAKSLKGGGGSNSVRV (CC-Hex2-GS4-NSVRV)
binding affinity to PICK1 as compared to the dimeric GCN4p1-GS4-HWLKV (PICK1 [1]): superior binding affinity

IIV [DAT-C5 variant]
Fold affinity change of combinatorial peptide library (PICK1 [6]): optimal 3-mer sequences

IRV [DAT-C5 variant]
Fold affinity change of combinatorial peptide library (PICK1 [6]): optimal 3-mer sequences

NSVRV (DAT C5 VARIANT)
Fold affinity change of combinatorial peptide library (PICK1 [6]): optimal 5-mer sequences

SNTANRRTTPV (RRTTPV monomer)
distribution of PSD-95 between supernatant and pellet (PSD-95): the majority of PSD-95 is found in the supernatant

TSIRV (DAT C5 VARIANT)
Fold affinity change of combinatorial peptide library (PICK1 [6]): optimal 5-mer sequences

YIIV (DAT C5 VARIANT)
Fold affinity change of combinatorial peptide library (PICK1 [6]): optimal 4-mer sequences
